{"source": "ChEMBL document CHEMBL4765489", "about": "“A FabG inhibitor targeting an allosteric binding site inhibits several orthologs from Gram-negative ESKAPE pathogens” (Bioorg Med Chem, 2021)", "key": {"[1]": {"test": "Inhibition of Acinetobacter baumannii N-terminal His6-tagged FabG expressed in Escherichia coli BL21 (DE3) using AcAcCoA as substrate assessed as NADPH consumption measured for 6 to 10 mins in presence of NADPH by spectrophotometric analysis"}, "[2]": {"test": "Inhibition of Klebsiella pneumoniae N-terminal His6-tagged FabG1 expressed in Escherichia coli BL21 (DE3) using AcAcCoA as substrate assessed as NADPH consumption measured for 6 to 10 mins in presence of NADPH by spectrophotometric analysis"}, "[3]": {"test": "Inhibition of Pseudomonas aeruginosa N-terminal His6-tagged FabG expressed in Escherichia coli BL21 (DE3) using AcAcCoA as substrate assessed as NADPH consumption measured for 6 to 10 mins in presence of NADPH by spectrophotometric analysis"}, "[4]": {"test": "Inhibition of Salmonella typhimurium N-terminal His6-tagged FabG expressed in Escherichia coli BL21 (DE3) using AcAcCoA as substrate assessed as NADPH consumption measured for 6 to 10 mins in presence of NADPH by spectrophotometric analysis", "parameters": "species or system Salmonella enterica subsp. enterica serovar Typhimurium"}, "[5]": {"test": "Inhibition of Salmonella typhimurium N-terminal His6-tagged FabG expressed in Escherichia coli BL21 (DE3) using 3-OHdNAC as substrate assessed as NADPH formation incubated for 2 hrs in presence of NADP by spectrophotometric analysis", "parameters": "species or system Salmonella enterica subsp. enterica serovar Typhimurium"}, "[6]": {"test": "Inhibition of Escherichia coli N-terminal His6-tagged FabG expressed in Escherichia coli BL21 (DE3) using AcAcCoA as substrate assessed as NADPH consumption measured for 6 to 10 mins in presence of NADPH by spectrophotometric analysis"}, "Staphylococcus aureus": {"system": "Staphylococcus aureus", "test": "Allosteric binding affinity to Staphylococcus aureus N-terminal His6-tagged FabG expressed in Escherichia coli BL21 (DE3) assessed as protein destabilization by measuring decrease in melting temperature at 1 mM incubated for 15 mins by Sypro orange dye based differential scanning fluorimetry"}, "Acinetobacter baumannii [7]": {"system": "Acinetobacter baumannii", "test": "Allosteric binding affinity to Acinetobacter baumannii N-terminal His6-tagged FabG expressed in Escherichia coli BL21 (DE3) assessed as melting temperature at 1 mM incubated for 15 mins by Sypro orange dye based differential scanning fluorimetry (reference value: 61.3 degreeC)"}, "[8]": {"test": "Inhibition of Staphylococcus aureus N-terminal His6-tagged FabG expressed in Escherichia coli BL21 (DE3) using AcAcCoA as substrate assessed as NADPH consumption measured for 6 to 10 mins in presence of NADPH by spectrophotometric analysis"}, "Pseudomonas aeruginosa": {"system": "Pseudomonas aeruginosa", "test": "Allosteric binding affinity to Pseudomonas aeruginosa N-terminal His6-tagged FabG expressed in Escherichia coli BL21 (DE3) assessed as protein destabilization by measuring decrease in melting temperature at 1 mM incubated for 15 mins by Sypro orange dye based differential scanning fluorimetry"}, "Acinetobacter baumannii [9]": {"system": "Acinetobacter baumannii", "test": "Allosteric binding affinity to Acinetobacter baumannii N-terminal His6-tagged FabG expressed in Escherichia coli BL21 (DE3) assessed as reduction in NADPH bound protein fraction at 100 to 500 uM by fluorescence based analysis", "conditions": "dose 100-500 µM"}, "Klebsiella pneumoniae": {"system": "Klebsiella pneumoniae", "test": "Allosteric binding affinity to Klebsiella pneumoniae N-terminal His6-tagged FabG expressed in Escherichia coli BL21 (DE3) assessed as protein destabilization by measuring decrease in melting temperature at 1 mM incubated for 15 mins by Sypro orange dye based differential scanning fluorimetry"}, "[10]": {"test": "Inhibition of Acinetobacter baumannii N-terminal His6-tagged FabG expressed in Escherichia coli BL21 (DE3) using 3-OHdNAC as substrate assessed as NADPH formation incubated for 2 hrs in presence of NADP by fluorescence based analysis"}, "[11]": {"system": "Salmonella enterica subsp. enterica serovar Typhimurium", "test": "Allosteric binding affinity to Salmonella typhimurium N-terminal His6-tagged FabG expressed in Escherichia coli BL21 (DE3) assessed as protein destabilization by measuring decrease in melting temperature at 1 mM incubated for 15 mins by Sypro orange dye based differential scanning fluorimetry"}, "Escherichia coli": {"system": "Escherichia coli", "test": "Allosteric binding affinity to Escherichia coli N-terminal His6-tagged FabG expressed in Escherichia coli BL21 (DE3) assessed as protein destabilization by measuring decrease in melting temperature at 1 mM incubated for 15 mins by Sypro orange dye based differential scanning fluorimetry"}}, "note": "Activity calls are given as the source filed them. The rule behind the calls is not given here."}
{"smiles": "O=C(Nc1ccc(Br)cc1C(=O)O)c1cccs1", "values": [{"measurement": "IC50", "setting": "[1]", "value": 33.4, "unit": "µM"}, {"measurement": "IC50", "setting": "[2]", "value": 186, "unit": "µM"}, {"measurement": "IC50", "setting": "[3]", "value": 3.1, "unit": "µM"}, {"measurement": "IC50", "setting": "[4]", "value": 175, "unit": "µM"}, {"measurement": "IC50", "setting": "[5]", "value": 5.1, "unit": "µM"}]}
{"smiles": "O=c1[nH]c(SCc2c(Cl)cccc2Cl)nc2ccnn12", "values": [{"measurement": "IC50", "setting": "[2]", "value": 137, "unit": "µM"}, {"measurement": "IC50", "setting": "[6]", "value": 19.9, "unit": "µM"}, {"measurement": "IC50", "setting": "[3]", "value": 30.9, "unit": "µM"}, {"measurement": "IC50", "setting": "[4]", "value": 150, "unit": "µM"}, {"measurement": "IC50", "setting": "[5]", "value": 22, "unit": "µM"}]}
{"smiles": "CCOC(=O)c1c(CN(C)C)n(-c2ccccc2)c2cc(Br)c(O)cc12", "values": [{"measurement": "Activity", "setting": "Staphylococcus aureus", "value": "Active"}, {"measurement": "Tm", "setting": "Acinetobacter baumannii [7]", "value": 58.5, "unit": "°C"}, {"measurement": "IC50", "setting": "[1]", "value": 64, "unit": "µM"}, {"measurement": "IC50", "setting": "[8]", "value": 70.7, "unit": "µM"}, {"measurement": "IC50", "setting": "[2]", "value": 13.8, "unit": "µM"}, {"measurement": "Activity", "setting": "Pseudomonas aeruginosa", "value": "Active"}, {"measurement": "IC50", "setting": "[6]", "value": 7, "unit": "µM"}, {"measurement": "Activity", "setting": "Acinetobacter baumannii [9]", "value": "Active"}, {"measurement": "Activity", "setting": "Klebsiella pneumoniae", "value": "Active"}, {"measurement": "IC50", "setting": "[3]", "value": 19.7, "unit": "µM"}, {"measurement": "IC50", "setting": "[4]", "value": 12, "unit": "µM"}, {"measurement": "IC50", "setting": "[10]", "value": 0.36, "unit": "µM"}, {"measurement": "IC50", "setting": "[5]", "value": 35, "unit": "µM"}, {"measurement": "Activity", "setting": "[11]", "value": "Active"}, {"measurement": "Activity", "setting": "Escherichia coli", "value": "Active"}]}
